Experiment: Solubility stated in words
Type: physicochemical

| SMILES | solubility (in words) |
| --- | --- |
| N=C(N)SCCS(=O)(=O)O [Comparative test E] | highly soluble |
| N=C(N)SCCCS(=O)(=O)O [Comparative test F] | less soluble |
| N=C(N)SCCCCS(=O)(=O)O [Comparative test G] | less soluble |
| CC(CCSC(=N)N)S(=O)(=O)O (stereo not shown) [Comparative test H] | less soluble |

Source: patent US5126227A, “High contrast photographic elements containing ballasted hydrophobic isothioureas” (priority 1990, dated 1992)
